Source: publication PMC12084297, “Cytoplasmic connexin43-microtubule interactions promote glioblastoma stem-like cell maintenance and tumorigenicity” (Cell Death & Disease, 2025)
“Also recorded” adds a separate entry of the source.

Columns and labels:
[1] = tested on: HEY1 mRNA; test: HEY1 mRNA by RT-qPCR, VTC-037 GSCs; assay type: cell-based, human; conditions: 50 μM, 24 h, compared to JM2-scrambled
Description: (§1) RNA was extracted using the PureLink^TM RNA mini extraction kit (Thermo Fisher) and on-column DNA digestion was completed using PureLink^TM DNase according to the manufacturer’s instructions. RNA was reverse transcribed to generate cDNA using the iScript^TM Reverse Transcription SuperMix for RT-qPCR kit (Bio-Rad Laboratories). Real-time PCR was performed using the SYBR select Master Mix for CFX (Thermo Fisher) in hard-shell 96-well PCR plates (Bio-Rad Laboratories) on a CFX Connect Real Time System (Bio-Rad Laboratories). Primer sequences used were: hNOTCH1_Fwd: 5’-CGCACAAGGTGTCTTCCAG-3’; hNOTCH1_Rev: 5’-CGGCGTGTGAGTTGATGA-3’; hHES1_Fwd: 5’-GGCTGGAGAGGCGGCTAA-3’; hHES1_Rev: 5’-[…]-3’; hHEY1_Fwd: 5’-[…]-3’; hHEY1_Rev: 5’-[…]-3’.

[2] = tested on: VTC-001 GSCs; test: MTS viability, VTC-001 GSCs; assay type: cell-based, human; conditions: 4 days
Description: (§2) Cells were plated in 96-well plates (2000–5000 cells per well) and treated the following day with TMZ (10, 50, or 100 μM), antennapedia, JM2-scrambled, or JM2 (10, 50, or 100 μM). After 4 days, cell viability was monitored following addition of MTS reagent (Promega) according to manufacturer’s instructions. The absorbance at 490 nm was measured using a SpectraMax i3 or iD3 microplate reader (Molecular Devices). For the caspase 3/7 activity assay, cells were plated in 96-well plates (2000 cells per well) and treated with TMZ or peptides as described above. The activity of caspase 3/7 was measured after 48 h using the Caspase-Glo® 3/7 assay (Promega) following the manufacturer’s instructions. Fold change of caspase 3/7 activity was defined as the ratio of caspase 3/7 luminescence in treated cells compared to controls.

[3] = tested on: normal human astrocytes; test: Caspase 3/7 activity, human astrocytes; assay type: cell-based; conditions: 100 μM, 2 days
Description: as §2

[4] = tested on: Cx43/α-tubulin interaction; test: STORM localization, cross-pair correlation of Cx43/α-tubulin interaction in VTC-037 GSCs; assay type: cell-based, human; conditions: 50 μM, 24 h, n = 10
Description: Cells were washed once with warm PBS before fixing in 4% paraformaldehyde for 20 min at room temperature or ice-cold methanol for 5 min on ice, washed twice, and held in PBS at 4°C until immunostaining was conducted. Cells were permeabilized and blocked in 5% normal goat or donkey serum (Fisher Scientific) and 0.1% Triton X-100 in PBS for 2 h at room temperature. Primary antibodies rabbit anti-Cx43 (MilliporeSigma; C6219), mouse anti-pan Cadherin (MilliporeSigma; C1821), or mouse anti-α-tubulin (MilliporeSigma; T6199) were diluted in blocking buffer and labeling was performed overnight at 4 °C. […]
Stochastic optical reconstruction microscopy (STORM) acquisition was conducted with a Vutara 350 microscope (Bruker). […] To quantify the spatial relationship between target proteins localized by STORM, we utilized cross-pair correlation analysis. […]

[5] = tested on: normal human astrocytes; test: MTS viability, human astrocytes; assay type: cell-based; conditions: 100 μM, 4 days
Description: as §2

[6] = tested on: HES1 mRNA; test: HES1 mRNA by RT-qPCR, VTC-037 GSCs; assay type: cell-based, human; conditions: 50 μM, 24 h, compared to antennapedia alone or JM2-scrambled
Description: as §1

[7] = tested on: LN229/GSCs; test: MTS survival, LN229/GSCs; assay type: cell-based, human; conditions: 100 µM, 4 days
Description: as §2

[8] = tested on: Cx43; conditions: prior work with JM2; ref [41]; cited from earlier work
From the text: Using JM2, a Cx43 mimetic peptide of Cx43 tubulin-binding domain, we confirm efficient and specific disruption of Cx43-microtubule interaction in GSCs together with decreased self-renewal abilities and enhanced killing of this cancer stem-like cell population, highlighting a novel tumorigenic role for Cx43 in GSCs, and GBM. Thermal shift assays reveal JM2 presents high affinity for both α- and β- tubulin. While chemotherapeutic drugs such as paclitaxel have been used to target microtubule functions as therapeutic agents, many of these therapeutic agents cause significant side-effects. M ...

VFFKGVKDRVKGRSD [JM2]
Hey1 mRNA expression [1]: significantly decreased the expression of Notch downstream targets Hes1 and Hey1 at the transcription level | GSC viability with JM2 alone in combination experiment (MTS) ([2]; VTC-001 adherent GSCs, 100 μM): significantly decreased GSC viability | GSC survival (MTS) ([2]; VTC-001 adherent GSCs, 10, 50 or 100 μM): significantly decreased VTC-001, VTC-034, and VTC-037 GSC survival when cultured as adherent cells in a dose-dependent manner | Caspase 3/7 activity in normal human astrocytes [3]: No effect on caspase 3/7 | Cx43-microtubule interaction (cross-pair correlation) [4]: impaired this interaction in situ | Human astrocyte viability (MTS) [5]: did not observe a decrease in human astrocyte viability, even at higher JM2 concentrations; also recorded: no toxic effect of JM2 on normal human astrocytes in vitro | Hes1 mRNA expression [6]: significantly decreased the expression of Notch downstream targets Hes1 and Hey1 at the transcription level | LN229/GSC survival (MTS) [7]: significantly decreased LN229/GSC survival after 4 days | Cx43 delivery to the cell surface [8]: a loss of Cx43 delivery to the cell surface due to increased Cx43/tubulin complexing
